The data set can be described thus: activity coefficient (dimensionless); of the first substance listed, at infinite dilution; xn = mol fraction of the nth substance listed. Conditions: 101 kPa, Liquid, Chromatography, x1 = 0.

± gives the expanded uncertainty stated by the source.

`CCCCCC` [hexane] + NCCCCCCCCCCCCN: the activity coefficient came to 4.86 ± 0.25 (348.25 K), 4.8 ± 0.25 (353.15 K), 4.74 ± 0.24 (358.25 K) and 4.69 ± 0.24 (363.21 K).

Regarding `CCCCO` [butan-1-ol] + NCCCCCCCCCCCCN, the activity coefficient (348.25 K) turned out to be 1.07 ± 0.048, the activity coefficient (353.15 K) was determined as 1.1 ± 0.049, the activity coefficient (358.25 K) is 1.12 ± 0.051 and the activity coefficient (363.21 K) was 1.16 ± 0.053.

In the case of `c1ccccc1` [benzene] + NCCCCCCCCN, the activity coefficient reads like this: (328.15 K) 1.8 ± 0.09; (338.15 K) 1.67 ± 0.083; (343.15 K) 1.62 ± 0.08; (348.15 K) 1.59 ± 0.078.

For `c1ccccc1` [benzene] + NCCCCCCCCCCN, the activity coefficient (338.2 K) was 1.72 ± 0.086, the activity coefficient (348.15 K) came to 1.61 ± 0.079 and the activity coefficient (353.22 K) is 1.58 ± 0.077.

As to `CCCCCCCl` [1-chlorohexane] + NCCCCCCCCCCCCN, the activity coefficient is, setting by setting: (348.25 K) 4.5 ± 0.23; (353.15 K) 4.27 ± 0.22; (358.25 K) 4.11 ± 0.21; (363.21 K) 3.94 ± 0.2.

Take `CCCCCCCCCC` [decane] + NCCCCCCCCN: the activity coefficient is 5.47 ± 0.28 (328.15 K), 4.82 ± 0.25 (338.15 K), 4.58 ± 0.23 (343.15 K) and 4.36 ± 0.22 (348.15 K).

Turning to `CCCCO` [butan-1-ol] + NCCCCCCCCN, the activity coefficient by setting is: (328.15 K) 0.669 ± 0.034; (338.15 K) 0.675 ± 0.034; (343.15 K) 0.681 ± 0.034; (348.15 K) 0.692 ± 0.035.

Consider `CCO` [ethanol] + NCCCCCCCCCCN, for which the activity coefficient by setting is: (338.2 K) 0.602 ± 0.033; (348.15 K) 0.676 ± 0.034; (353.22 K) 0.718 ± 0.035.

As to `CCOCC` [diethyl ether] + NCCCCCCCCCCCCN, the activity coefficient runs as follows: (348.25 K) 4.45 ± 0.23; (353.15 K) 4.37 ± 0.22; (358.25 K) 4.33 ± 0.22; (363.21 K) 4.25 ± 0.22.

For the molecule `CCCCCCCC` [octane] + NCCCCCCCCCCCCN, the activity coefficient stood at 5.54 ± 0.28 (348.25 K), 5.43 ± 0.28 (353.15 K), 5.27 ± 0.27 (358.25 K) and 5.19 ± 0.27 (363.21 K).

With `CCCCOC(C)=O` [butyl ethanoate] + NCCCCCCCCN, the activity coefficient is, setting by setting: (328.15 K) 1.51 ± 0.073; (338.15 K) 1.25 ± 0.058; (343.15 K) 1.14 ± 0.052; (348.15 K) 1.05 ± 0.047.

`CO` [methanol] + NCCCCCCCCCCCCN: the activity coefficient stood at 0.774 ± 0.037 (348.25 K), 0.841 ± 0.039 (353.15 K), 0.919 ± 0.041 (358.25 K) and 1.01 ± 0.044 (363.21 K).

In the case of `CCCCCCl` [1-chloropentane] + NCCCCCCCCCCCCN, the activity coefficient is, setting by setting: (348.25 K) 3.08 ± 0.16; (353.15 K) 2.91 ± 0.15; (358.25 K) 2.73 ± 0.14; (363.21 K) 2.68 ± 0.14.

As to `CO` [methanol] + NCCCCCCCCCCN, the activity coefficient amounted to 0.551 ± 0.032 (338.2 K), 0.634 ± 0.033 (348.15 K) and 0.682 ± 0.035 (353.22 K).

For the molecule `CCCCCl` [1-chlorobutane] + NCCCCCCCCN, the activity coefficient (328.15 K) came to 1.88 ± 0.095, the activity coefficient (338.15 K) amounted to 1.65 ± 0.081, the activity coefficient (343.15 K) came out at 1.55 ± 0.075 and the activity coefficient (348.15 K) was determined as 1.48 ± 0.071.

Take `CCCCCCC` [heptane] + NCCCCCCCCN: the activity coefficient was determined as 4.36 ± 0.22 (328.15 K), 4.09 ± 0.21 (338.15 K), 4 ± 0.2 (343.15 K) and 3.95 ± 0.2 (348.15 K).

Turning to `CCCCC` [pentane] + NCCCCCCCCCCN, the activity coefficient worked out at 353 ± 18 (3.9 K), 348 ± 18 (4.022 K) and 338 ± 18 (4.331 K).

In the case of `CCOCC` [diethyl ether] + NCCCCCCCCN, the activity coefficient (328.15 K) is 3.52 ± 0.18, the activity coefficient (338.15 K) came to 3.4 ± 0.17, the activity coefficient (343.15 K) is 3.37 ± 0.17 and the activity coefficient (348.15 K) was determined as 3.36 ± 0.17.

Turning to `C=CCCC` [1-pentene] + NCCCCCCCCCCN, the activity coefficient runs as follows: (338.2 K) 3.23 ± 0.17; (348.15 K) 2.98 ± 0.15; (353.22 K) 2.88 ± 0.15.

Consider `CCCCCCCl` [1-chlorohexane] + NCCCCCCCCN, for which the activity coefficient was determined as 3.85 ± 0.2 (328.15 K), 2.73 ± 0.14 (338.15 K), 2.38 ± 0.12 (343.15 K) and 2.02 ± 0.1 (348.15 K).

Consider `CCCO` [propan-1-ol] + NCCCCCCCCN, for which the activity coefficient (328.15 K) was determined as 0.567 ± 0.032, the activity coefficient (338.15 K) stood at 0.58 ± 0.032, the activity coefficient (343.15 K) stood at 0.593 ± 0.032 and the activity coefficient (348.15 K) is 0.614 ± 0.033.

For `CCCOC(C)=O` [propyl ethanoate] + NCCCCCCCCCCN, the activity coefficient (338.2 K) was 1.39 ± 0.066, the activity coefficient (348.15 K) was determined as 1.11 ± 0.05 and the activity coefficient (353.22 K) amounted to 0.991 ± 0.044.

For `CCCCCl` [1-chlorobutane] + NCCCCCCCCCCN, the activity coefficient is, setting by setting: (338.2 K) 2.38 ± 0.12; (348.15 K) 2.12 ± 0.11; (353.22 K) 2.01 ± 0.1.

On to `CCO` [ethanol] + NCCCCCCCCN, for which the activity coefficient reads like this: (328.15 K) 0.384 ± 0.029; (338.15 K) 0.407 ± 0.029; (343.15 K) 0.42 ± 0.029; (348.15 K) 0.435 ± 0.029.

As for `CO` [methanol] + NCCCCCCCCN, the activity coefficient came to 0.284 ± 0.028 (328.15 K), 0.317 ± 0.028 (338.15 K), 0.34 ± 0.028 (343.15 K) and 0.369 ± 0.029 (348.15 K).

Take `C=CCCCCCCCC` [1-decene] + NCCCCCCCCN: the activity coefficient is, setting by setting: (328.15 K) 4.24 ± 0.22; (338.15 K) 3.58 ± 0.18; (343.15 K) 3.33 ± 0.17; (348.15 K) 3.14 ± 0.16.

In the case of `ClC(Cl)(Cl)Cl` [tetrachloromethane] + NCCCCCCCCCCCCN, the activity coefficient (348.25 K) stood at 2.37 ± 0.12, the activity coefficient (353.15 K) came to 2.28 ± 0.12, the activity coefficient (358.25 K) is 2.06 ± 0.11 and the activity coefficient (363.21 K) is 1.98 ± 0.1.

Turning to `C=CCCC` [1-pentene] + NCCCCCCCCN, the activity coefficient is 2.81 ± 0.14 (328.15 K), 2.7 ± 0.14 (338.15 K), 2.67 ± 0.14 (343.15 K) and 2.65 ± 0.14 (348.15 K).

For the molecule `CCCCCCC` [heptane] + NCCCCCCCCCCN, the activity coefficient is, setting by setting: (338.2 K) 5.05 ± 0.26; (348.15 K) 4.64 ± 0.24; (353.22 K) 4.46 ± 0.23.

Regarding `CCCCCl` [1-chlorobutane] + NCCCCCCCCCCCCN, the activity coefficient was determined as 2.71 ± 0.14 (348.25 K), 2.63 ± 0.14 (353.15 K), 2.56 ± 0.13 (358.25 K) and 2.46 ± 0.13 (363.21 K).

Turning to `CCCCO` [butan-1-ol] + NCCCCCCCCCCN, the activity coefficient (338.2 K) stood at 0.721 ± 0.035, the activity coefficient (348.15 K) came out at 0.774 ± 0.037 and the activity coefficient (353.22 K) worked out at 0.815 ± 0.038.

Regarding `CCCCC` [pentane] + NCCCCCCCCCCCCN, the activity coefficient is, setting by setting: (348.25 K) 4.76 ± 0.24; (353.15 K) 4.74 ± 0.24; (358.25 K) 4.68 ± 0.24; (363.21 K) 4.63 ± 0.24.

For the molecule `C=CCCCCCCCC` [1-decene] + NCCCCCCCCCCN, the activity coefficient (338.2 K) turned out to be 4.34 ± 0.22, the activity coefficient (348.15 K) turned out to be 3.82 ± 0.2 and the activity coefficient (353.22 K) was found to be 3.57 ± 0.18.

Take `CCOC(C)=O` [ethyl acetate] + NCCCCCCCCCCN: the activity coefficient by setting is: (338.2 K) 1.16 ± 0.053; (348.15 K) 0.951 ± 0.042; (353.22 K) 0.868 ± 0.04.

Regarding `CCCCOC(C)=O` [butyl ethanoate] + NCCCCCCCCCCN, the activity coefficient is 1.5 ± 0.073 (338.2 K), 1.17 ± 0.054 (348.15 K) and 1.03 ± 0.046 (353.22 K).

Take `C=CCCCC` [hex-1-ene] + NCCCCCCCCCCN: the activity coefficient (338.2 K) stood at 3.37 ± 0.17, the activity coefficient (348.15 K) stood at 3.06 ± 0.16 and the activity coefficient (353.22 K) was found to be 2.92 ± 0.15.

For `CCCCCCl` [1-chloropentane] + NCCCCCCCCN, the activity coefficient by setting is: (328.15 K) 2.71 ± 0.14; (338.15 K) 2.12 ± 0.11; (343.15 K) 1.92 ± 0.098; (348.15 K) 1.73 ± 0.087.

On to `CCCCCCCCCC` [decane] + NCCCCCCCCCCCCN, for which the activity coefficient (348.25 K) was determined as 6.11 ± 0.31, the activity coefficient (353.15 K) worked out at 5.89 ± 0.3, the activity coefficient (358.25 K) stood at 5.74 ± 0.29 and the activity coefficient (363.21 K) was 5.6 ± 0.29.

In the case of `CCc1ccccc1` [ethylbenzene] + NCCCCCCCCCCCCN, the activity coefficient was determined as 2.5 ± 0.13 (348.25 K), 2.47 ± 0.13 (353.15 K), 2.42 ± 0.12 (358.25 K) and 2.39 ± 0.12 (363.21 K).

With `CCCCCC` [hexane] + NCCCCCCCCN, the activity coefficient is, setting by setting: (328.15 K) 4.03 ± 0.21; (338.15 K) 3.83 ± 0.2; (343.15 K) 3.75 ± 0.19; (348.15 K) 3.72 ± 0.19.

In the case of `C=CCCCCCC` [oct-1-ene] + NCCCCCCCCN, the activity coefficient was determined as 3.94 ± 0.2 (328.15 K), 3.38 ± 0.17 (338.15 K), 3.16 ± 0.16 (343.15 K) and 3 ± 0.15 (348.15 K).

For the molecule `CCO` [ethanol] + NCCCCCCCCCCCCN, the activity coefficient is, setting by setting: (348.25 K) 0.828 ± 0.039; (353.15 K) 0.891 ± 0.04; (358.25 K) 0.952 ± 0.042; (363.21 K) 1.03 ± 0.045.

For the molecule `CCCCCCCC` [octane] + NCCCCCCCCN, the activity coefficient stood at 4.73 ± 0.24 (328.15 K), 4.4 ± 0.23 (338.15 K), 4.24 ± 0.22 (343.15 K) and 4.13 ± 0.21 (348.15 K).

Regarding `C=CCCCC` [hex-1-ene] + NCCCCCCCCCCCCN, the activity coefficient is, setting by setting: (348.25 K) 4.28 ± 0.22; (353.15 K) 4.12 ± 0.21; (358.25 K) 3.93 ± 0.2; (363.21 K) 3.8 ± 0.2.

The record behind these values is the NIST ThermoML archive (doi:10.1021/je200628n).
